# “And” between values parts separate entries of the source, which are not always exact repeats. Equal values may be shown once. Toxic doses and inconclusive results are not listed.
# System: L1210 leukemia ip in BDF1 mice, survival T/C
# Test: NCI In Vivo Anticancer Drug Screen. Data for tumor model L1210 Leukemia (intraperitoneal) in B6D2F1 (BDF1) mice
# Conditions: endpoint: mean survival time, higher = longer survival
# In short: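 Tumor was transplanted into mice, which were then dosed with test compound or vehicle alone. Survival was recorded for each group, and the treated figure was expressed relative to the control figure.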
# [1] = dose: 100.0 mg/kg/injection, schedule: Q01DX001 (ip), vehicle: saline
# [2] = dose: 200.0 mg/kg/injection, schedule: Q01DX001 (ip), vehicle: saline
# [3] = dose: 100.0 mg/kg/injection, schedule: Q01DX009 (ip), vehicle: Klucel (hydroxypropylcellulose) (HPC)
# [4] = dose: 100.0 mg/kg/injection, schedule: Q01DX001 (ip), vehicle: Klucel (hydroxypropylcellulose) (HPC)
# [5] = dose: 200.0 mg/kg/injection, schedule: Q01DX001 (ip), vehicle: Klucel (hydroxypropylcellulose) (HPC)
# [6] = dose: 100.0 mg/kg/injection, schedule: Q04DX003 (ip), vehicle: saline with Tween-80
# [7] = dose: 50.0 mg/kg/injection, schedule: Q01DX001 (ip), vehicle: saline
# [8] = dose: 400.0 mg/kg/injection, schedule: Q01DX001 (ip), vehicle: saline
smiles,measurement,setting,value
CC1=C(Cl)C(=N\S(=O)(=O)c2ccccc2)/c2ccccc2/C1=N/S(=O)(=O)c1ccccc1,T/C,"dose: 100.0 mg/kg/injection, schedule: Q01DX001 (ip), vehicle: saline sonified",101 % of control
same,T/C,"dose: 200.0 mg/kg/injection, schedule: Q01DX001 (ip), vehicle: saline sonified",100 % of control
same,T/C,"dose: 400.0 mg/kg/injection, schedule: Q01DX001 (ip), vehicle: saline sonified",102 % of control
O=C(NC1CCCCC1)c1ccc(C(=O)NC2CCCCC2)cc1,T/C,"dose: 100.0 mg/kg/injection, schedule: Q04DX002 (ip), vehicle: Klucel (hydroxypropylcellulose) (HPC)",94 % of control
same,T/C,"dose: 200.0 mg/kg/injection, schedule: Q04DX002 (ip), vehicle: Klucel (hydroxypropylcellulose) (HPC)",102 % of control
same,T/C,"dose: 400.0 mg/kg/injection, schedule: Q04DX002 (ip), vehicle: Klucel (hydroxypropylcellulose) (HPC)",91 % of control
C/C(=C1/SC(=S)NC1=O)c1ccccc1O,T/C,[1],104 % of control
same,T/C,[2],104 % of control
O=C1C(NCc2c(O)ccc3ccccc23)CON1C(c1ccccc1)(c1ccccc1)c1ccccc1 (stereo unspecified),T/C,"dose: 75.0 mg/kg/injection, schedule: Q04DX003 (ip), vehicle: saline",89 % of control
same,T/C,"dose: 300.0 mg/kg/injection, schedule: Q04DX003 (ip), vehicle: saline",91 % of control
Cc1c(CNc2ccc(Cl)c(C(=O)NC(CC(=O)O)C(=O)O)c2)ccc2nc(N)nc(N)c12 (stereo unspecified),T/C,"dose: 1.5 mg/kg/injection, schedule: Q01DX009 (ip), vehicle: Klucel (hydroxypropylcellulose) (HPC)",110 % of control
same,T/C,"dose: 3.0 mg/kg/injection, schedule: Q01DX009 (ip), vehicle: Klucel (hydroxypropylcellulose) (HPC)",115 % of control
same,T/C,"dose: 3.13 mg/kg/injection, schedule: Q01DX009 (ip), vehicle: Klucel (hydroxypropylcellulose) (HPC)",120 % of control
same,T/C,"dose: 6.0 mg/kg/injection, schedule: Q01DX009 (ip), vehicle: Klucel (hydroxypropylcellulose) (HPC)",110 % of control and 92 % of control
same,T/C,"dose: 12.5 mg/kg/injection, schedule: Q01DX009 (ip), vehicle: Klucel (hydroxypropylcellulose) (HPC)",160 % of control
same,T/C,"dose: 50.0 mg/kg/injection, schedule: Q01DX009 (ip), vehicle: Klucel (hydroxypropylcellulose) (HPC)",168 % of control
same,T/C,[3],97 % of control and 100 % of control
same,T/C,"dose: 100.0 mg/kg/injection, schedule: Q01DX009 (ip), vehicle: saline",162 % of control
same,T/C,"dose: 267.0 mg/kg/injection, schedule: Q01DX001 (ip), vehicle: saline",122 % of control
CC12C(c3ccccc3)=C(c3ccccc3)C(C)(C3C(=O)OC(=O)C31)C1C(=O)OC(=O)C12 (stereo unspecified),T/C,[4],88 % of control
same,T/C,[5],100 % of control
same,T/C,"dose: 400.0 mg/kg/injection, schedule: Q01DX001 (ip), vehicle: Klucel (hydroxypropylcellulose) (HPC)",100 % of control
N#CC1(Cc2ccc(OCc3ccccc3)c(OCc3ccccc3)c2)c2ccccc2C=CN1C(=O)c1ccccc1 (stereo unspecified),T/C,"dose: 25.0 mg/kg/injection, schedule: Q04DX003 (ip), vehicle: saline with Tween-80",100 % of control
same,T/C,"dose: 50.0 mg/kg/injection, schedule: Q04DX003 (ip), vehicle: saline with Tween-80",91 % of control
same,T/C,[6],89 % of control
CCN(CC)CCOC(=O)c1cccc2[nH]ccc12,T/C,"dose: 100.0 mg/kg/injection, schedule: Q04DX003 (ip), vehicle: saline",104 % of control
same,T/C,"dose: 200.0 mg/kg/injection, schedule: Q04DX003 (ip), vehicle: saline",109 % of control
CN=C(c1ccc(NC(=O)c2ccc(C(=O)Nc3ccc(C(=NC)N(C)C(C)=O)cc3)cc2)cc1)N(C)C(C)=O,T/C,"dose: 4.0 mg/kg/injection, schedule: Q01DX Z (ip), vehicle: carboxymethylcellulose (CMC)",98 % of control
same,T/C,"dose: 6.0 mg/kg/injection, schedule: Q01DX Z (ip), vehicle: carboxymethylcellulose (CMC)",104 % of control
same,T/C,"dose: 8.0 mg/kg/injection, schedule: Q01DX Z (ip), vehicle: carboxymethylcellulose (CMC)",90 % of control
same,T/C,"dose: 10.0 mg/kg/injection, schedule: Q01DX Z (ip), vehicle: carboxymethylcellulose (CMC)",101 % of control
same,T/C,"dose: 12.5 mg/kg/injection, schedule: Q01DX Z (ip), vehicle: carboxymethylcellulose (CMC)",110 % of control
same,T/C,"dose: 50.0 mg/kg/injection, schedule: Q01DX Z (ip), vehicle: carboxymethylcellulose (CMC)",87 % of control
CC(=O)OCCC(OC(C)=O)c1ccccn1 (stereo unspecified),T/C,[7],100 % of control
same,T/C,[1],103 % of control
same,T/C,[2],97 % of control
same,T/C,[8],103 % of control
Oc1cccnc1I,T/C,[7],102 % of control
same,T/C,[1],98 % of control
same,T/C,[2],98 % of control
same,T/C,[8],102 % of control
CCN(CC)CCC(CCN(CC)CC)(CNC(=O)CN(CC)CC)c1cccc2ccccc12,T/C,"dose: 12.5 mg/kg/injection, schedule: Q01DX009 (ip), vehicle: saline",97 % of control
same,T/C,"dose: 12.5 mg/kg/injection, schedule: Q04DX003 (ip), vehicle: saline",87 % of control
same,T/C,"dose: 25.0 mg/kg/injection, schedule: Q01DX009 (ip), vehicle: saline",114 % of control
same,T/C,"dose: 25.0 mg/kg/injection, schedule: Q04DX003 (ip), vehicle: saline",95 % of control
same,T/C,"dose: 50.0 mg/kg/injection, schedule: Q01DX009 (ip), vehicle: saline",108 % of control
same,T/C,"dose: 50.0 mg/kg/injection, schedule: Q04DX003 (ip), vehicle: saline",88 % of control
Clc1ccccc1C=Nc1cccc2ccccc12,T/C,[3],121 % of control
same,T/C,"dose: 200.0 mg/kg/injection, schedule: Q01DX009 (ip), vehicle: Klucel (hydroxypropylcellulose) (HPC)",104 % of control
same,T/C,"dose: 400.0 mg/kg/injection, schedule: Q01DX009 (ip), vehicle: Klucel (hydroxypropylcellulose) (HPC)",107 % of control
CC1CC(C)CC(C)C(O)/C(C#N)=C/C=C/CC(C2CCCC2C(=O)O)OC(=O)CC(O)C(C)C1 (stereo unspecified),T/C,"dose: 0.5 mg/kg/injection, schedule: Q01DX009 (ip), vehicle: saline with Tween-80",98 % of control
same,T/C,"dose: 1.0 mg/kg/injection, schedule: Q01DX009 (ip), vehicle: saline with Tween-80",104 % of control
same,T/C,"dose: 2.0 mg/kg/injection, schedule: Q01DX009 (ip), vehicle: saline with Tween-80",96 % of control
Cc1cc(C)c(O)c(CN(C)C)c1,T/C,[6],101 % of control
same,T/C,"dose: 200.0 mg/kg/injection, schedule: Q04DX003 (ip), vehicle: saline with Tween-80",98 % of control
CC1(CCCc2ccc(N)cc2)N=C(N)N=C(N)N1c1ccccc1 (stereo unspecified),T/C,"dose: 50.0 mg/kg/injection, schedule: Q01DX001 (ip), vehicle: Klucel (hydroxypropylcellulose) (HPC)",106 % of control
same,T/C,[4],112 % of control
same,T/C,[5],110 % of control
COc1cc(C=O)ccc1OC(=O)Nc1cc(C)ccc1C,T/C,"dose: 25.0 mg/kg/injection, schedule: Q01DX009 (ip), vehicle: saline with Tween-80",100 % of control and 91 % of control
same,T/C,"dose: 50.0 mg/kg/injection, schedule: Q01DX001 (ip), vehicle: saline with Tween-80",96 % of control
same,T/C,"dose: 50.0 mg/kg/injection, schedule: Q01DX009 (ip), vehicle: saline with Tween-80",97 % of control and 101 % of control
same,T/C,"dose: 100.0 mg/kg/injection, schedule: Q01DX001 (ip), vehicle: saline with Tween-80",97 % of control
same,T/C,"dose: 100.0 mg/kg/injection, schedule: Q04DX002 (ip), vehicle: saline with Tween-80",91 % of control and 92 % of control
same,T/C,"dose: 200.0 mg/kg/injection, schedule: Q01DX001 (ip), vehicle: saline with Tween-80",94 % of control and 92 % of control
same,T/C,"dose: 200.0 mg/kg/injection, schedule: Q04DX002 (ip), vehicle: saline with Tween-80",94 % of control and 106 % of control
same,T/C,"dose: 400.0 mg/kg/injection, schedule: Q04DX002 (ip), vehicle: saline with Tween-80",94 % of control and 92 % of control

# — PubChem BioAssay AID248 (DTP/NCI, 2004)
